Source: patent US20230293518A1 (Edgewise Therapeutics, Inc., priority 2020, published 2023)

test system: embryos from zebrafish model of DMD; assay: not given; conditions: Li and Arner, PLoSONE, 2015; cited from earlier work

Row | Structure (SMILES) | protection of muscles from pathological muscle derangement
1 | Cc1ccc(S(=O)(=O)NCc2ccccc2)cc1 [BTS, N-benzyl-p-tolyl-sulfonamide] | protect muscles from pathological muscle derangement

biological target: skeletal myofibrils (myosin ATPase); assay: Skeletal Myofibril ATPase Assay; assay type: biochemical; conditions: Table 4C
Outline: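 IC50 came from four-parameter logistic fits, bottom constrained ≥0, of (Max−Min) A340 values normalised to 1% DMSO controls. Readings were taken kinetically over 45 min at 1.5-2 min intervals, with ADP from myofibril myosin ATPase coupled through PK-LDH to NADH oxidation. Buffer was pCa (PIPES/CaCl2/EGTA), pH 7.0.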

Row | Structure (SMILES) | IC50
2 | COc1ccc(-c2ccc(=O)n(CC(=O)NCc3cccc(F)c3)n2)c(F)c1 [IIIb-55, 2-(3-(2-fluoro-4-methoxyphenyl)-6-oxopyridazin-1(6H)-yl)-N-(3-fluorobenzyl)acetamide] | > 100 µM
3 | COc1ccc(-c2ccc(=O)n(CC(=O)Nc3ccc(C(C)C)cc3)n2)cc1 [IIIb-56, N-(4-isopropylphenyl)-2-(3-(4-methoxyphenyl)-6-oxopyridazin-1(6H)-yl)acetamide] | > 100 µM
4 | COc1ccc(-c2ccc(=O)n(CC(=O)NCCC(C)C)n2)c(F)c1 [IIIb-57, 2-(3-(2-fluoro-4-methoxyphenyl)-6-oxopyridazin-1(6H)-yl)-N-isopentylacetamide] | > 100 µM
5 | COc1ccc(-c2ccc(=O)n(CC(=O)NC3CC3)n2)c(F)c1 [IIIb-58, N-cyclopropyl-2-(3-(2-fluoro-4-methoxyphenyl)-6-oxopyridazin-1(6H)-yl)acetamide] | > 100 µM
6 | COc1ccc(-c2ccc(=O)n(CC(=O)Nc3cccc(C)n3)n2)cc1 [IIIb-59, 2-(3-(4-methoxyphenyl)-6-oxopyridazin-1(6H)-yl)-N-(6-methylpyridin-2-yl)acetamide] | > 100 µM
7 | COc1ccc(-c2ccc(=O)n(CC(=O)NC3CCCCC3)n2)c(F)c1 [IIIb-60, N-cyclohexyl-2-(3-(2-fluoro-4-methoxyphenyl)-6-oxopyridazin-1(6H)-yl)acetamide] | > 100 µM
8 | CCc1cccc(NC(=O)Cn2nc(-c3ccc(C)cc3)ccc2=O)c1 [IIIc-1, N-(3-ethylphenyl)-2-(6-oxo-3-(p-tolyl)pyridazin-1(6H)-yl)acetamide] | < 10 µM
9 | CC[C@H](C)NC(=O)Cn1nc(-c2ccc(C)cc2)ccc1=O [IIIc-2, (S)-N-(sec-butyl)-2-(6-oxo-3-(p-tolyl)pyridazin-1(6H)-yl)acetamide] | < 10 µM
10 | Cc1ccc(-c2ccc(=O)n(CC(=O)NCCc3ccccc3)n2)cc1 [IIIc-3, 2-(6-oxo-3-(p-tolyl)pyridazin-1(6H)-yl)-N-phenethylacetamide] | < 10 µM
11 | Cc1ccc(-c2ccc(=O)n(CC(=O)NC3CCCCCC3)n2)cc1 [IIIc-4, N-cycloheptyl-2-(6-oxo-3-(p-tolyl)pyridazin-1(6H)-yl)acetamide] | 10 to 100 µM
12 | Cc1ccc(-c2ccc(=O)n(CC(=O)NC3CCCC3)n2)cc1 [IIIc-5, N-cyclopentyl-2-(6-oxo-3-(p-tolyl)pyridazin-1(6H)-yl)acetamide] | 10 to 100 µM
13 | Cc1ccc(-c2ccc(=O)n(CC(=O)NC3CCCCC3)n2)cc1 [IIIc-6, N-cyclohexyl-2-(6-oxo-3-(p-tolyl)pyridazin-1(6H)-yl)acetamide] | 10 to 100 µM
14 | COc1ccc(-c2ccc(=O)n(CC(=O)N(C)c3ccccc3)n2)cc1 [IIIc-7, 2-(3-(4-methoxyphenyl)-6-oxopyridazin-1(6H)-yl)-N-methyl-N-phenylacetamide] | 10 to 100 µM
15 | Cn1ccc2c(NC(=O)Cn3nc(-c4ccc(F)cc4)ccc3=O)cccc21 [IIIc-16, 2-(3-(4-fluorophenyl)-6-oxopyridazin-1(6H)-yl)-N-(1-methyl-1H-indol-4-yl)acetamide] | < 10 µM
16 | O=C(Cn1nc(-c2ccc(Cl)cc2)ccc1=O)Nc1cccc2[nH]ccc12 [IIIc-19, 2-(3-(4-chlorophenyl)-6-oxopyridazin-1(6H)-yl)-N-(1H-indol-4-yl)acetamide] | < 10 µM
17 | Cn1ccc2c(NC(=O)Cn3nc(-c4ccc(Cl)cc4)ccc3=O)cccc21 [IIIc-20, 2-(3-(4-chlorophenyl)-6-oxopyridazin-1(6H)-yl)-N-(1-methyl-1H-indol-4-yl)acetamide] | < 10 µM
18 | O=C(Cn1nc(-c2ccc(Cl)cc2)ccc1=O)Nc1ccc2[nH]ccc2c1 [IIIc-22, 2-(3-(4-chlorophenyl)-6-oxopyridazin-1(6H)-yl)-N-(1H-indol-5-yl)acetamide] | < 10 µM
19 | COc1ccccc1NC(=O)Cn1nc(-c2ccc(Cl)cc2)ccc1=O [IIIc-23, 2-(3-(4-chlorophenyl)-6-oxopyridazin-1(6H)-yl)-N-(2-methoxyphenyl)acetamide] | < 10 µM
20 | O=C(Cn1nc(-c2ccc(Cl)cc2)ccc1=O)Nc1ccccc1F [IIIc-27, 2-(3-(4-chlorophenyl)-6-oxopyridazin-1(6H)-yl)-N-(2-fluorophenyl)acetamide] | 10 to 100 µM
21 | O=C(Cn1nc(-c2ccc(Cl)cc2)ccc1=O)Nc1ccccc1Cl [IIIc-28, N-(2-chlorophenyl)-2-(3-(4-chlorophenyl)-6-oxopyridazin-1(6H)-yl)acetamide] | < 10 µM
22 | CC[C@H](C)NC(=O)Cn1nc(-c2ccc(Cl)cc2)ccc1=O [IIIc-30, (S)-N-(sec-butyl)-2-(3-(4-chlorophenyl)-6-oxopyridazin-1(6H)-yl)acetamide] | 10 to 100 µM

More lines, now with the values ahead:

Row | IC50 | Structure (SMILES)
23 | 10 to 100 µM | COc1ccc(NC(=O)Cn2nc(-c3ccc(F)cc3)ccc2=O)c(OC)c1 [IIIc-31, N-(2,4-dimethoxyphenyl)-2-(3-(4-fluorophenyl)-6-oxopyridazin-1(6H)-yl)acetamide]
24 | 10 to 100 µM | CN(Cc1ccccc1)C(=O)Cn1nc(-c2ccc(Cl)cc2)ccc1=O [IIIc-32, N-benzyl-2-(3-(4-chlorophenyl)-6-oxopyridazin-1(6H)-yl)-N-methylacetamide]
25 | 10 to 100 µM | CC(C)OCCCNC(=O)Cn1nc(-c2ccc(Cl)cc2)ccc1=O [IIIc-33, 2-(3-(4-chlorophenyl)-6-oxopyridazin-1(6H)-yl)-N-(3-isopropoxypropyl)acetamide]
26 | 10 to 100 µM | CC(C)CNC(=O)Cn1nc(-c2ccc(Cl)cc2)ccc1=O [IIIc-35, 2-(3-(4-chlorophenyl)-6-oxopyridazin-1(6H)-yl)-N-isobutylacetamide]
27 | 10 to 100 µM | CC(C)NC(=O)Cn1nc(-c2ccc(Br)cc2)ccc1=O [IIIc-40, 2-(3-(4-bromophenyl)-6-oxopyridazin-1(6H)-yl)-N-isopropylacetamide]
28 | 10 to 100 µM | O=C(Cn1nc(-c2ccc(F)cc2)ccc1=O)NCCc1c[nH]c2ccccc12 [IIIc-44, N-(2-(1H-indol-3-yl)ethyl)-2-(3-(4-fluorophenyl)-6-oxopyridazin-1(6H)-yl)acetamide]
29 | 10 to 100 µM | O=C(Cn1nc(-c2ccccc2)ccc1=O)NCc1ccccc1Cl [IIIc-47, N-(2-chlorobenzyl)-2-(6-oxo-3-phenylpyridazin-1(6H)-yl)acetamide]
30 | < 10 µM | O=C(Cn1nc(-c2ccccc2)ccc1=O)NCCC1=CCCCC1 [IIIc-48, N-(2-(cyclohex-1-en-1-yl)ethyl)-2-(6-oxo-3-phenylpyridazin-1(6H)-yl)acetamide]
31 | < 10 µM | O=C(Cn1nc(-c2ccccc2)ccc1=O)Nc1ccc2[nH]ccc2c1 [IIIc-49, N-(1H-indol-5-yl)-2-(6-oxo-3-phenylpyridazin-1(6H)-yl)acetamide]
32 | 10 to 100 µM | O=C(Cn1nc(-c2ccccc2)ccc1=O)Nc1cccc2[nH]ccc12 [IIIc-50, N-(1H-indol-4-yl)-2-(6-oxo-3-phenylpyridazin-1(6H)-yl)acetamide]
33 | < 10 µM | O=C(Cn1nc(-c2ccccc2)ccc1=O)NC1(c2ccccc2)CCC1 [IIIc-51, 2-(6-oxo-3-phenylpyridazin-1(6H)-yl)-N-(1-phenylcyclobutyl)acetamide]
34 | 10 to 100 µM | O=C(Cn1nc(-c2ccccc2)ccc1=O)Nc1ccccc1C(F)(F)F [IIIc-52, 2-(6-oxo-3-phenylpyridazin-1(6H)-yl)-N-(2-(trifluoromethyl)phenyl)acetamide]
35 | 10 to 100 µM | CC(CCNC(=O)Cn1nc(-c2ccccc2)ccc1=O)c1ccccc1 (stereo not drawn) [IIIc-53, 2-(6-oxo-3-phenylpyridazin-1(6H)-yl)-N-(3-phenylbutyl)acetamide]
36 | 10 to 100 µM | O=C(Cn1nc(-c2ccccc2)ccc1=O)Nc1ccc(Cl)cc1Cl [IIIc-54, N-(2,4-dichlorophenyl)-2-(6-oxo-3-phenylpyridazin-1(6H)-yl)acetamide]
37 | 10 to 100 µM | CCC1CCC(CNC(=O)Cn2nc(-c3ccccc3)ccc2=O)CC1 (stereo not drawn) [IIIc-55, N-((4-ethylcyclohexyl)methyl)-2-(6-oxo-3-phenylpyridazin-1(6H)-yl)acetamide]
38 | 10 to 100 µM | O=C(Cn1nc(-c2ccccc2)ccc1=O)Nc1ccccc1Cl [IIIc-56, N-(2-chlorophenyl)-2-(6-oxo-3-phenylpyridazin-1(6H)-yl)acetamide]
39 | 10 to 100 µM | CC[C@H](C)NC(=O)Cn1nc(-c2ccccc2)ccc1=O [IIIc-57, (S)-N-(sec-butyl)-2-(6-oxo-3-phenylpyridazin-1(6H)-yl)acetamide]
40 | 10 to 100 µM | COc1ccccc1NC(=O)Cn1nc(-c2ccccc2)ccc1=O [IIIc-58, N-(2-methoxyphenyl)-2-(6-oxo-3-phenylpyridazin-1(6H)-yl)acetamide]
41 | > 100 µM | COc1ccc(Cl)cc1NC(=O)Cn1nc(-c2ccccc2)ccc1=O [IIIc-62, N-(5-chloro-2-methoxyphenyl)-2-(6-oxo-3-phenylpyridazin-1(6H)-yl)acetamide]
42 | > 100 µM | CC(C)NC(=O)Cn1nc(-c2ccccc2)ccc1=O [IIIc-63, N-isopropyl-2-(6-oxo-3-phenylpyridazin-1(6H)-yl)acetamide]
43 | > 100 µM | O=C(Cn1nc(-c2ccccc2)ccc1=O)Nc1ccc2c(c1)OCCO2 [IIIc-64]
44 | > 100 µM | O=C(Cn1nc(-c2ccccc2)ccc1=O)NC1CC1 [IIIc-65, N-cyclopropyl-2-(6-oxo-3-phenylpyridazin-1(6H)-yl)acetamide]
45 | > 100 µM | O=C(Cn1nc(-c2ccccc2)ccc1=O)Nc1ccccc1F [IIIc-66, N-(2-fluorophenyl)-2-(6-oxo-3-phenylpyridazin-1(6H)-yl)acetamide]
